Reference: article PMC11124136, “New Thiazolidine-4-One Derivatives as SARS-CoV-2 Main Protease Inhibitors” (Pharmaceuticals, 2024)
Like-named read-outs stand apart in the source and are kept apart here.

What was measured:
[1] = test system: SARS-CoV-2 BetaCoV/Belgium/GHB-03021/2020 strain; assay: microbe, parasite or virus in culture; assay type: cell-based; conditions: read-out: EC50 + CP_100356
[2] = in vitro; assay type: cell-based; conditions: African green monkey
Procedure: (§1) Vero-E6 GFP cells were seeded at 10^4 cells/well in 96-well black plates (PerkinElmer). The following day, cells were incubated, with or without compounds, with 2 μM P-gp inhibitor CP-100356 [47]. The media was removed 24 h after treatment, and the total well GFP fluorescence was measured using Victor NIVO 5 with 485/535 nm excitation wavelength. The cytotoxic effect of compounds was calculated as a percentage of cell viability with respect to untreated control. Data were analyzed using Prism 9. Version 9.1.2.

[3] = test system: Vero-E6 GFP cells; assay: in vitro; assay type: cell-based; conditions: concentration reducing Vero E6-GFP viability by 50%; 2 μM CP-100356, 24 h; read-out: CC50 +CP_100356
Procedure: as §1

[4] = target: SARS-CoV-2 Mpro (Severe acute respiratory syndrome coronavirus 2, UniProt P0DTD1); assay: biochemical; assay type: biochemical; conditions: for remaining activity at 30 µM: SARS-CoV-2 Mpro, at 30 μM (highest concentration tested), read-out: Percentage of control activity measured in the presence of the indicated drug concentration; for IC50: FRET assay, concentration reducing Mpro activity by 50%, mean ± SD of three independent experiments, highest concentration tested 30 μM
[5] = Severe acute respiratory syndrome coronavirus 2, Vero C1008, 72 h, concentration reducing viral replication by 50%, […]

SMILES | EC50 [1, 5] [µM] | CC50 at 24 h [2] [µM] | EC50 [1] [µM] | CC50 [3] [µM] | melting point [°C] | remaining activity at 30 µM [4] [%] | IC50 [4] [µM]
O=C1CSC(c2ccc([N+](=O)[O-])cc2)N1CCc1ccccc1Cl (stereo not drawn) [Compound 4g] | > 100 | > 100 |  |  |  |  | 
CC(C)C[C@H](NC(=O)OCc1ccccc1)C(=O)N[C@@H](CC1CCNC1=O)C(O)S(=O)(=O)O (stereo partly drawn) [GC376, reference compound] |  |  | 0.626 ± 0.06 | > 100 |  |  | 
O=C1CSC(c2ccc([N+](=O)[O-])cc2)N1CCc1ccccc1Cl (stereo not drawn) [Compound 4e] |  |  |  |  | 123 to 124.5 |  | 
O=C1CSC(c2ccc([N+](=O)[O-])cc2)N1CCc1ccc(Cl)cc1 (stereo not drawn) [Compound 4i] | > 100 | > 100 |  |  |  | 54 | 
O=C1CSC(c2ccc([N+](=O)[O-])cc2)N1CCc1ccccc1 (stereo not drawn) [Compound 4a, 2-(4-nitrophenyl)-3-(phenylethyl)-1,3-thiazolidin-4-one] | > 100 | > 100 |  |  | 125 | 53 | > 30
COc1ccccc1CCN1C(=O)CSC1c1ccc([N+](=O)[O-])cc1 (stereo not drawn) [Compound 4e] | > 100 | > 100 |  |  |  | 54 | 
O=C1CSC(c2ccc([N+](=O)[O-])cc2)N1CCc1ccc(F)cc1 (stereo not drawn) [Compound 4d, 2-(4-nitrophenyl)-3-(4-fluorophenylethyl)-1,3-thiazolidin-4-one] | > 100 | > 100 |  |  | 149 to 151 |  | 27.5 ± 5.5
COc1ccc(CCN2C(=O)CSC2c2ccc([N+](=O)[O-])cc2)cc1 (stereo not drawn) [Compound 4f] | > 100 | > 100 |  |  |  | 82 | 
O=C1CSC(c2ccc([N+](=O)[O-])cc2)N1CCc1cccc(F)c1 (stereo not drawn) [Compound 4c, 2-(4-nitrophenyl)-3-(3-fluorophenylethyl)-1,3-thiazolidin-4-one] | > 100 | > 100 |  |  | 165 to 167 | 87 | > 30
O=C1CSC(c2ccc([N+](=O)[O-])cc2)N1CCc1ccccc1F (stereo not drawn) [Compound 4b, 2-(4-nitrophenyl)-3-(2-fluorophenylethyl)-1,3-thiazolidin-4-one] | > 100 | > 100 |  |  | 150 to 151 | 70 | > 30
